US20260174749A1, “COMBINATION THERAPY WITH SUBSTITUTED 3-((3-AMINOPHENYL)AMINO)PIPERIDINE-2,6- DIONE COMPOUNDS” (Bristol-Myers Squibb Company, priority 2022, published 2026)

What was measured:
Assay type in all cases: cell-based
Conditions in all cases: second agent in combination with Compound I, 7 days; for Synergy region (synergy score): Bliss/HSA excess
VCaP cells = test: CTG proliferation assay, in-vitro combination screen, VCaP; parameters: key to Synergy excess / Additivity score: area between experimental and reference (Bliss/HSA) response surfaces
Procedure: (§1) Three prostate cancer cell lines LNCAP, VCAP, and 22RV1 were used in this screen. Briefly, LNCaP cells were cultured in RPMI medium supplemented with 10% FBS, 1% penicillin/streptomycin, 10 mM HEPES, 1 mM sodium pyruvate, and 1.5 g/L sodium bicarbonate. […] PC3 cells were cultured in F12K medium supplemented with 10% FBS and 1% penicillin/streptomycin. 22RV1 cells were cultured in RPMI1640 medium supplemented with 10% FBS and 1% penicillin/streptomycin. […] VCaP cells were cultured in DMEM medium supplemented with 10% FBS, 1% penicillin/streptomycin 1 mM sodium pyruvate, 1.5 g/L sodium bicarbonate on high bind treated tissue culture flasks (Corning CellBIND) to increase cell surface attachment. […] The combination plates seeded with cells were then incubated for 7 days at 37° C. and 5% CO2. Cell viability assays were then performed on the plates using Promega CellTiter-Glo (CTG) Luminescent Cell Viability Assay kit and following the manufacturer's protocol. 20 μL of CTG reagent was added to each well of the 384 well plate, and plates were then incubated for 45 minutes before measuring the […] using PerkinElmer EnVision Plate Reader.
(§2) Synergy is calculated by Bliss and HSA excess scores. Bliss and HSA excess scores are computed by subtracting the area under the experimental response surface to the areas under the corresponding reference model surface. A negative HSA excess score indicates antagonism, while a positive HSA excess indicates additivity and synergy is detected when also the Bliss excess score is positive. Replicates are integrated by fitting individual dose response curves. Statistical analysis is performed by first estimating experimental noise and goodness-of-fit values for each individual combination. These values are used to compute Z-scores for the observed effects. Z-scores are integrated across the combination matrix where the deviation from the model is consistent over adjacent doses and a p-value is computed.

LNCaP cells = test: CTG proliferation assay, in-vitro combination screen, LNCaP; parameters: key to Synergy excess: experimental response-surface area minus reference-model area (Bliss/HSA); Maximum synergy: scale not given here
Procedure: Three prostate cancer cell lines LNCAP, VCAP, and 22RV1 were used in this screen. Briefly, LNCaP cells were cultured in RPMI medium supplemented with 10% FBS, 1% penicillin/streptomycin, 10 mM HEPES, 1 mM sodium pyruvate, and 1.5 g/L sodium bicarbonate. LNCaP cells were seeded at a density of 2000 cells/well on 384 black assay plates printed with our different compound combinations of interest printed on the plates. PC3 cells were cultured in F12K medium supplemented with 10% FBS and 1% penicillin/streptomycin. 22RV1 cells were cultured in RPMI1640 medium supplemented with 10% FBS and 1% penicillin/streptomycin. 22RV1 cells were seeded at a density of 2000 cells/well on 384 black assay plates printed with our different compound combinations of interest printed on the plates. VCaP cells were cultured in DMEM medium supplemented with 10% FBS, 1% penicillin/streptomycin 1 mM sodium pyruvate, 1.5 g/L sodium bicarbonate on high bind treated tissue culture flasks (Corning CellBIND) to increase cell surface attachment. VCaP cells were seeded at a density of 3000 cells/well on high-bind 384 black assay plates printed with our different compound combinations of interest printed on the plates. The combination plates seeded with cells were then incubated for 7 days at 37° C. and 5% CO2. Cell viability assays were then performed on the plates using Promega CellTiter-Glo (CTG) Luminescent Cell Viability Assay kit and following the manufacturer's protocol. 20 μL of CTG reagent was added to each well of the 384 well plate, and plates were then incubated for 45 minutes before measuring the […] using PerkinElmer EnVision Plate Reader.
as §2

22RV1 cells = test: CTG proliferation assay, in-vitro combination screen, 22RV1; parameters: key to Synergy region (synergy score) / Additivity score / Antagonism score: area between experimental and reference (Bliss/HSA) response surfaces
Procedure: as §1, §2

| Compound | Additivity score (VCaP cells) | Antagonism score (VCaP cells) | Maximum synergy (VCaP cells) | Synergy excess (VCaP cells) | Synergy region (synergy score) (VCaP cells) | Additivity score (LNCaP cells) | Antagonism score (LNCaP cells) | Maximum synergy (LNCaP cells) | Synergy excess (LNCaP cells) | Synergy region (synergy score) (LNCaP cells) | Additivity score (22RV1 cells) | Antagonism score (22RV1 cells) | Maximum synergy (22RV1 cells) | Synergy excess (22RV1 cells) | Synergy region (synergy score) (22RV1 cells) |
| --- | --- | --- | --- | --- | --- | --- | --- | --- | --- | --- | --- | --- | --- | --- | --- |
| NC1(C(=O)N[C@@H](CCO)c2ccc(Cl)cc2)CCN(c2nc[nH]c3nccc2-3)CC1 [AZD5363, capivasertib] | 7.1 | 0 | 13 | 6.2 | 2 | 16 | 0 | 26 | 9.4 | 8.1 | – | – | – | – | – |
| C[C@@H](Nc1cc(F)cc(F)c1)c1cc(C(=O)N(C)C)cc2c(=O)cc(N3CCOCC3)oc12 [AZD8186] | 2.1 | 0 | 11 | 2.9 | 0.39 | 10 | 0 | 12 | 4.4 | 1.5 | 7.6 | 0 | 24 | 2.4 | 1.6 |
| CC(C)NC[C@@H](C(=O)N1CCN(c2ncnc3c2[C@H](C)C[C@H]3O)CC1)c1ccc(Cl)cc1 [GDC-0068, ipatasertib] | 7.5 | 0 | 14 | 3.8 | 1.5 | 13 | 0 | 23 | 7.6 | 5.6 | 7.5 | 0 | 23 | 2.4 | 2.1 |
| N#CC[C@H](C1CCCC1)n1cc(-c2ncnc3[nH]ccc23)cn1 [Ruxolitinib, ruxolitinib] | 5.2 | 0 | – | – | – | – | – | – | – | – | – | – | – | – | – |
| CNC(=O)c1cc(Oc2ccc(NC(=O)Nc3ccc(Cl)c(C(F)(F)F)c3)cc2)ccn1 [Sorafenib, sorafenib] | – | – | – | – | – | – | – | – | – | – | 2.6 | 0 | 20 | – | 0.65 |
| CCN(c1cc(-c2ccc(CN3CCOCC3)cc2)cc(C(=O)NCc2c(C)cc(C)[nH]c2=O)c1C)C1CCOCC1 [Tazemetostat, tazemetostat] | – | – | – | – | – | 6.1 | 0 | 20 | 5.3 | 4.1 | – | – | – | – | – |
